Data taken from patent US20250304623A1, “PEPTIDES FOR INTRACELLULAR DELIVERY” (UNIVERSIDADE DE SANTIAGO DE COMPOSTELA, priority 2022, published 2025).
Starred links: 1 amine or outer side, 2 acyl side, 3 side chain; linkers in the order of their positions; H or OH if unused. Residues, ends and D or L forms follow the SMILES beside them. Groups on a side chain read outwards from the residue. *: point of attachment. Glutaryl = O=C(CCCC(=O)[*:2])[*:1]; X1 = CCCC/C=C\CCCCCCCC=NN*

Assays:
Hela cells = assay: EGFP pDNA transfection, flow cytometry, HeLa; type: cell-based; details: HeLa seeded at 60,000, 120,000 and 240,000 cells/mL
Description: For cytometry-based assays, the delivery of pDNA encoding for the expression of eGFP gene (GFP) in HeLa and A549 cells was performed. Amphiphilic molecule stock solutions in DMSO were diluted with DMEM and freshly mixed with pDNA stock solutions in DMEM prior to transfection experiments, to afford several complexes at different amphiphile concentration (2.5-10 μM) while maintaining a constant final pDNA concentration of 2 ng/μL. The mixture was shaken for 30 min at room temperature before the addition to the cells. The cell medium was aspirated, and cells were washed twice with PBS. Finally, 50 μL of the complex's solution were added to the cells and incubated for 4 h. After the incubation, the medium was replaced by 100 μL of fresh DMEM supplemented with 10% FBS. 72 hours after transfection the DMEM was removed, and cells were cultured for 5 min with 100 μL of trypsin. Then, 100 μL of PBS (supplemented with 2% FBS and 1% EDTA 0.5M) were added. Finally, the GFP fluorescent measurement was performed in a flow cytometer and the percentage of GFP positive (i.e., transfected cells) were quantified. Amphiphile transfection efficiency was compared to control, non-treated cells and all experiments were done in triplicate.
7.3(Leu-His) peptide with D-amino acids was synthesized. This peptide would be more resistant to the degradation by proteases. The inventors studied the delivery of EGFP pDNA using amphiphiles comprising either enantiomer (either 7.3(Leu-His) peptide with D-amino acids or with L-amino acids) and myristoleyl aldehyde to compare their transfecting activity in HeLa cells. Number of EGFP expressing cells was measured by flow cytometry.
Experiments in cultured cells at different confluence levels were performed to check the effect of this parameter on the activity of amphiphile 7.3(Leu-His) M. As described above, transfection experiments are usually performed on cells seeded the day before at a cell concentration of 60,000 cell/mL (100 μL/well). In the current example, transfection experiments with EGFP pDNA are performed in HeLa cells two and four times more concentrated (120,000 and 240,000 cells/mL, respectively). […] However, for this experiment more volume of complex amphiphile/pDNA was needed as the cell concentration was increased (50, 100 and 200 μL of complexes were used for 60,000, 120,000 and 240,000 cells/mL, respectively).
Several structural modifications were performed on the peptide 7.3(Leu-His). The delivery of EGFP pDNA in HeLa cells using amphiphiles comprising these peptides and myristoleyl aldehyde was tested. The modifications consisted of the modification in the order of the amino acids, the replacement of 1 to 3 K* residues for O* residues and the addition of 1 or 2 R residues on the N-terminus. […]

mice = assay: In vivo FLuc mRNA delivery, i.v. injection, concentrated formulation, BLI; details: 125 μM
Description: Amphiphile stock solutions were prepared in DMSO as described above, but in this case, the amphiphile was contacted directly with the solution of nucleic acid cargo in a suitable buffer, such as PBS, or phosphate buffer enriched with inorganic salts, without any predilution step of the amphiphile's DMSO solution in a suitable aqueous buffer. Delivery efficiency of mRNA by i.v. administration route was determined by bioluminescence imaging (BLI). […] Luciferase expression was evaluated over 24 h, starting at 1 h after the administration of mRNA complexes. After that time, mice were sacrificed, and each organ was analysed individually using bioluminescence imaging (BLI) for quantification of the expression. […] Transfection results with the optimal volume ratios (125 or 250 μM final amphiphile concentration) and expression quantification in organs for candidates 7.2 DO, 7.2 M, 9.2 DO and 9.2 M are presented in FIGS. 12A, 12B, 11A, 11B, 13A, 13B, 20A and 20B respectively.
FIGS. 19A and 19B show in vivo transfection experiments in mice using amphiphiles comprising peptide 13.2 with oleyl aldehyde (13.2 O). These figures show representative bioluminescence images of mice and the extracted organs following i.v. (intravenous) injection of FLuc mRNA/amphiphile 13.2 O complexes (125 and 250 μM of 13.2 O were used, as indicated) at different times (1 h, 4 h, 7 h and 24 h). […]

CCCC/C=C\CCCCCCCC=NNC(=O)CCCC(=O)NCCCC[C@H](NC(=O)[C@H](CCCCNC(=O)CCCC(=O)NN=CCCCCCCC/C=C\CCCC)NC(=O)[C@H](CCCNC(=N)N)NC(=O)[C@H](Cc1c[nH]cn1)NC(=O)[C@H](CCCCNC(=O)CCCC(=O)NN=CCCCCCCC/C=C\CCCC)NC(=O)[C@H](CCCNC(=N)N)NC(C)=O)C(=O)N[C@@H](Cc1c[nH]cn1)C(N)=O [7.3(Leu-His) M] (Ac-RK([Glutaryl-X1])HRK([Glutaryl-X1])K([Glutaryl-X1])H-NH2)
EGFP pDNA transfection at different cell confluence (Hela cells): performs equally well at all cell concentrations tested
effect of DMSO:aqueous volume ratio on bioluminescence (mice; ratios 1:100, 1:200, 1:400): 1:100 (DMSO:aqueous) ratios showed the highest bioluminescence values, with up to one order of magnitude luminescence enhancement as compared to 1:200 ratio
biodistribution of bioluminescence (mice; concentrated formulation, 5 μg mRNA/mouse): a preferred spleen biodistribution of the bioluminescence was observed
